From the METLIN SMRT retention time set (Domingo-Almenara et al. 2019)

Assay: gradient 5% acetonitrile 3 min, to 50% in 2 min, to 85% in 15 min, held 3 min, 100 µL/min
Details: column: Zorbax Extend-C18 2.1 x 50 mm; eluents: water / acetonitrile, 0.1% formic acid
Outline: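 A Zorbax Extend-C18 column (2.1 × 50 mm, 1.8 μm) run at 100 μL/min with water and acetonitrile, both containing 0.1% formic acid, separated mixtures of ~100 pure standards. The HPLC was coupled to a quadrupole time-of-flight mass spectrometer operated in positive and negative ionization mode, with dead and dwell volumes of 40 μL and 900 μL. Each retention time was taken from a computationally picked adduct peak that was then manually inspected.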
Work on `CC(C)c1ccc(S(=O)(=O)N2CCc3c(c(-c4nnc(-c5ccccc5F)o4)nn3C)C2)cc1` yielded an RP-LC retention time of 1070 s.
For `O=C(CC1CCCCC1)Nc1ccc(-c2nnc3n2CCCC3)cc1`, the RP-LC retention time was 719 s.
For `CC(C)OC(=O)Cn1c(C2CC(=O)N(Cc3ccccc3)C2)nc2ccccc21` (configuration not stated), the RP-LC retention time was 799 s.
Work on `COc1cc(C2c3c(-c4ccc(C)cc4)n[nH]c3C(=O)N2C)ccc1O` (configuration not stated) yielded an RP-LC retention time of 692 s.
In the case of `Cc1ccc(C(=O)Nc2ccc(N3CCN(c4ccccc4)C3=O)nc2)cc1C`, the RP-LC retention time is reported as 1070 s.
`O=C(NCc1ccc(F)cc1Cl)c1cn2ccccc2n1` showed an RP-LC retention time of 708 s.
Work on `CC(C)CC(NC(=O)Cc1ccccc1F)C(=O)Nc1nc2ccccc2[nH]1` (configuration not stated) yielded an RP-LC retention time of 740 s.
In the case of `Cc1ccc(-c2nc(C)cc(SCC(=O)Nc3ccccc3Br)n2)cc1`, the RP-LC retention time is reported as 1290 s.
`Cc1cc(C)cc(Oc2nccn3c(=O)n(CC(=O)Nc4ccccc4)nc23)c1` gave an RP-LC retention time of 922 s.
`COCCNC(=O)CN1c2ccccc2NC2=C(C(=O)CC(C)(C)C2)C1c1cccs1` (configuration not stated) showed an RP-LC retention time of 727 s.
`Cn1c(=O)c2nc(S(=O)(=O)CCC(=O)Nc3cc(Cl)ccc3F)n(C)c2n(C)c1=O` gave an RP-LC retention time of 771 s.
With `COc1ccc(OC)c(NC(=O)NCC(c2cccnc2)c2cn(C)c3ccccc23)c1` (configuration not stated) the RP-LC retention time was 713 s.
`COc1ccc(-c2nc3ccc(Cl)cn3c2Nc2ccc(C)cc2)cc1` showed an RP-LC retention time of 838 s.
In the case of `COCC(=O)N(C1CCOCC1)C1CCN(S(=O)(=O)c2ccccc2)CC1`, the RP-LC retention time is reported as 727 s.
Compound `O=C(Cc1cccs1)N1CCC(c2noc(-c3ccncc3)n2)C1` (configuration not stated) has an RP-LC retention time of 702 s.
In the case of `CNC(=O)C1CN(C(=O)Nc2cc(C)ccc2C)CC12CCCC2` (configuration not stated), the RP-LC retention time is reported as 715 s.
Compound `Fc1ccc(-c2ccc(CNC3CN4CCC3CC4)o2)cc1` (configuration not stated) has an RP-LC retention time of 558 s.
Work on `Cc1c(C(=O)N(C)C)cnn1-c1ccc(-c2nc(C3CC3)no2)cn1` yielded an RP-LC retention time of 790 s.
For `COCCN(Cc1ccc(F)cc1)Cc1cc(=O)n2cc(Cl)ccc2n1`, the RP-LC retention time was 647 s.
Work on `COc1ccc(C(=O)c2cn(CC(=O)c3ccc(Cl)cc3)c3nc(C)ccc3c2=O)cc1` yielded an RP-LC retention time of 1010 s.
`CCOc1ccc(CN2C[C@@H]3C(=O)N(CCN4CCc5ccccc5C4)C(=O)[C@@H]3C2)cc1` gave an RP-LC retention time of 598 s.
`Cc1cc(NC(=O)CSc2[nH]c(=O)ncc2C)on1` gave an RP-LC retention time of 567 s.
For `Cc1ccc2c(c1)N(Cc1nc(-c3ccc(F)cc3)no1)C(=O)CO2`, the RP-LC retention time was 1060 s.
`Cc1c(-c2nn3c(Cc4ccccc4)nnc3s2)nnn1-c1ccc(Cl)cc1` showed an RP-LC retention time of 1040 s.
Compound `CCC(=O)N1CCc2ccc(C(=O)NC3CCCCC3)cc21` has an RP-LC retention time of 800 s.
In the case of `COc1ccc(CCC(=O)c2c(O)cc(O[C@@H]3O[C@H](CO)[C@@H](O)[C@H](O)[C@H]3O[C@@H]3O[C@@H](C)[C@H](O)[C@@H](O)[C@H]3O)cc2O)cc1O`, the RP-LC retention time is reported as 654 s.
With `COc1ccc(-n2ccnc(NC(=O)Nc3ccc(F)cc3)c2=O)cc1OC` the RP-LC retention time was 848 s.
`COc1cccc(-c2nc(-c3ccc(S(=O)(=O)N4CCC(C)CC4)cc3)no2)c1` showed an RP-LC retention time of 1360 s.
Work on `CCn1nc(C)c2ccn(CC(=O)NCc3ccc(Br)cc3)c(=O)c21` yielded an RP-LC retention time of 797 s.
Work on `CCCN1CCN(C(=O)c2cc3n(n2)CC(C)(C(=O)NC2CCCCCC2)N(C)C3=O)CC1` (configuration not stated) yielded an RP-LC retention time of 614 s.
In the case of `O=C(Cn1ccn2nc(-c3ccccc3)c(CO)c2c1=O)Nc1cc(Cl)cc(Cl)c1`, the RP-LC retention time is reported as 867 s.
`CCC(=O)N1c2ccc(S(=O)(=O)N3CCCCC3)cc2CC1C(=O)NC1CCCCCC1` (configuration not stated) showed an RP-LC retention time of 1010 s.
Work on `Cc1nc(N2CCN(C(=O)c3ccccc3)CC2)c(C#N)c2c1COC(C)(C)C2` yielded an RP-LC retention time of 941 s.
With `CCc1nnc(-c2ccc3ccn(CC(=O)Nc4ccc(C(=O)OC)cc4)c3c2)o1` the RP-LC retention time was 811 s.
Work on `Cc1cc(C(=O)Nc2c3c(nn2C)CCC3)no1` yielded an RP-LC retention time of 611 s.
For `Cc1ccc(C(=O)Nc2nccnc2C(=O)NC2CCCC2)cc1`, the RP-LC retention time was 1040 s.
Compound `CC(=O)N1C[C@@H](C(=O)NCCc2cccs2)[C@H](c2nc(C)no2)C1` has an RP-LC retention time of 652 s.
Work on `CN1C(=O)[C@H]2CN(Cc3ccc(OC(F)(F)F)cc3)C[C@H]2C1=O` yielded an RP-LC retention time of 666 s.
`O=C(C1=NNc2ccc(Cl)cc2S1(=O)=O)N1CCOCC1` showed an RP-LC retention time of 663 s.
`O=C(c1cncc(Br)c1)N1CCC(OCC2CC2)C1` (configuration not stated) showed an RP-LC retention time of 730 s.
`CCc1cccc(NC(=O)N2CCC(CC(=O)N3CCCCC3)CC2)c1` gave an RP-LC retention time of 751 s.
Work on `O=C(CCSc1ccc(F)cc1)Nc1nnc(-c2ccco2)o1` yielded an RP-LC retention time of 729 s.
`O=C(NCc1csc(-c2cccs2)n1)C1CCN(C(=O)CCC2CCCC2)CC1` showed an RP-LC retention time of 878 s.
Work on `CCn1cnc(S(=O)(=O)N2CCC(C(=O)Nc3ccc(C)c(Cl)c3)CC2)c1` yielded an RP-LC retention time of 822 s.
For `Cn1cnc2cc(CNC(=O)c3cccc(Cl)c3)ccc21`, the RP-LC retention time was 631 s.
For `CCc1sc(NC(=O)c2cc(Cl)c(NC(C)=O)cc2OC)nc1-c1ccccc1`, the RP-LC retention time was 1170 s.
Work on `CCc1nc(-n2cccc2)sc1C(=O)Nc1ccc(F)cc1` yielded an RP-LC retention time of 1080 s.
With `O=C(Nc1ccc(S(=O)(=O)N2CC3CC(C2)c2cccc(=O)n2C3)cc1)C1CC1` (configuration not stated) the RP-LC retention time was 631 s.
In the case of `Cn1cnc2c(C(=O)N3CCN(C4CCCCC4)CC3)nn(-c3ccc(Cl)cc3)c2c1=O`, the RP-LC retention time is reported as 654 s.
For `Cc1ccc(CNC(=O)C2CCN(c3cncnc3N3CCOCC3)CC2)cc1C`, the RP-LC retention time was 649 s.
For `CCCc1ccc(S(=O)(=O)N2CCCC2c2nc(-c3ccc(C)cc3)no2)cc1` (configuration not stated), the RP-LC retention time was 1320 s.
`COc1ccc(OC)c(NC(=O)Nc2cccc(-c3nccnc3N3CCCC3)c2)c1` showed an RP-LC retention time of 916 s.
`Cc1ccc(NC(=O)Nc2ccc3c(c2)CCN3S(=O)(=O)c2ccccc2)cc1F` showed an RP-LC retention time of 1020 s.
`Cc1ccc(-c2ncccc2CNS(=O)(=O)Cc2cccc(Cl)c2)cc1` showed an RP-LC retention time of 741 s.
`Cc1cccc(CC(=O)N2C[C@@H]3C[C@H]2C[C@@H]3NS(C)(=O)=O)c1` showed an RP-LC retention time of 673 s.
In the case of `O=C(NCc1cccc(C(F)(F)F)c1)C1(CCO)CCN(c2ncccn2)C1` (configuration not stated), the RP-LC retention time is reported as 669 s.
With `Cc1cc(C)nc(SCC(=O)Nc2ncc(Cc3ccc(Cl)cc3)s2)n1` the RP-LC retention time was 942 s.
With `COc1cccc(CN2CCc3nc(N4CCCC4)ncc3C2)c1OC` the RP-LC retention time was 610 s.
In the case of `CCOc1ccc(-c2csc(C)n2)cc1S(=O)(=O)N1CCN(c2ccc(OC)cc2)CC1`, the RP-LC retention time is reported as 1060 s.
`Cc1nn(-c2nc(-c3ccc(F)cc3)cs2)c(C)c1CC(=O)Nc1ccccc1Cl` gave an RP-LC retention time of 1230 s.
For `CCCCCn1c(=O)c2ccccc2n(Cc2nc(-c3ccccc3OCC)no2)c1=O`, the RP-LC retention time was 1250 s.
`COc1cc(C)c(S(=O)(=O)Nc2ccc(-c3cn4ccc(C)nc4n3)cc2)cc1C` gave an RP-LC retention time of 683 s.
In the case of `COc1ccc(-c2ccnc3nc(-c4ccco4)nn23)c(F)c1`, the RP-LC retention time is reported as 819 s.
`Cn1c(N2CCCC(C(=O)NCCCN3CCN(c4ccccc4)CC3)C2)cc(=O)n(C)c1=O` (configuration not stated) gave an RP-LC retention time of 600 s.
`O=C(C1CC1)N1CCN(S(=O)(=O)c2cc(-c3noc(C4CCC4)n3)cs2)CC1` gave an RP-LC retention time of 926 s.
Compound `CCOC(=O)c1cc(S(=O)(=O)N2CCCC2C(=O)NC2CCCCCCC2)cn1C` (configuration not stated) has an RP-LC retention time of 1020 s.
For `COc1ccc(C(=O)NCCc2c[nH]c3ccc(Cl)cc23)cc1OC`, the RP-LC retention time was 817 s.
`COc1ccc(NC(=O)N2CC=C(c3cn(C)c4ncccc34)CC2)cc1OC` showed an RP-LC retention time of 714 s.
With `CCCNC(=O)C1CCN(c2ccc(SCC(=O)Nc3ccc(OCC)cc3)nn2)CC1` the RP-LC retention time was 639 s.
In the case of `CCN1CCCC1CNc1onc(-c2ccc(Cl)cc2)c1C(=O)OC` (configuration not stated), the RP-LC retention time is reported as 699 s.
`CCN1c2ccc(F)cc2C(=O)NC12CCN(C(=O)Cc1ccc(C)cc1)CC2` showed an RP-LC retention time of 853 s.
`O=C(N[C@H]1C[C@@H]2C[C@H]1CN2C(=O)c1cc2c(s1)CCCC2)c1cccnc1` gave an RP-LC retention time of 731 s.
`c1cc(-c2nc(-c3ccc4c(c3)nnn4CCN3CCCCC3)no2)ccn1` showed an RP-LC retention time of 599 s.
Work on `CCOc1ccc(C(=O)NCc2noc(-c3ccc(OC)cc3)n2)cc1` yielded an RP-LC retention time of 876 s.
For `O=C(Cn1c(=O)c2cccn2c2ccc(F)cc21)NCCCN1CCCC1=O`, the RP-LC retention time was 647 s.
`Cc1cccc(Cn2cccc2-c2nc(-c3ccc4c(c3)OCO4)no2)c1` showed an RP-LC retention time of 1360 s.
Work on `Cc1cc(C)cc(Oc2nccn3c(=O)n(CC(=O)NC4CCCC4)nc23)c1` yielded an RP-LC retention time of 834 s.
`O=C(CSc1nc(N2CCCCC2)nc2ccccc12)Nc1ccccc1` showed an RP-LC retention time of 702 s.
With `COC(=O)c1ncn2c1C(=O)N(CCC1=CCCCC1)C(C)(C(=O)NCc1ccccc1)C2` (configuration not stated) the RP-LC retention time was 821 s.
In the case of `CCC(C)NC(=O)C1COC2(CCN(C(=O)c3ccc(F)cc3F)CC2)N1C(=O)c1ccccc1` (configuration not stated), the RP-LC retention time is reported as 744 s.
Compound `COc1ccccc1-c1nnc(C2CCN(S(=O)(=O)c3c(C)cc(C)cc3C)CC2)o1` has an RP-LC retention time of 1030 s.
`Cc1ccc(CN2CCC(CNC(=O)C3CCCN(c4nccc(C)n4)C3)CC2)cc1` (configuration not stated) showed an RP-LC retention time of 594 s.
`O=C(NC1CCCCCC1)c1ccc2ccnc(N3CCN(c4ccc(F)cc4)CC3)c2c1` showed an RP-LC retention time of 973 s.
Compound `Cc1ccn2c(NC(=O)COc3ccc(Cl)cc3Cl)c(-c3ccccc3)nc2c1` has an RP-LC retention time of 799 s.
For `COc1ccc(C(=O)N2CC3CN(S(=O)(=O)c4ccc(OC)cc4)CC(C2)O3)cc1`, the RP-LC retention time was 769 s.
`CCn1cnc2ccc(-c3noc(-c4ccc(F)cc4)n3)cc21` showed an RP-LC retention time of 780 s.
In the case of `CSc1cccc(NC(=O)NCCc2cn(C)c3ncccc23)c1`, the RP-LC retention time is reported as 716 s.
